Results as given in US20240360060A1, “6-HYDROXY-CANNABIDIOL-C4” (GW RESEARCH LIMITED, priority 2021, published 2024).
Values joined by “and” are separate entries in the source; they are usually repeats but may differ in a detail not shown here. Identical values can stand only once. Like-named read-outs stand apart in the source and are kept apart here.

What was measured:
[1] = test system: MES model of generalised seizure; settings: earlier filing WO 2020/104796; cited from earlier work
[2] = Bioanalysis of Compound I in plasma and brain (UPLC-MS/MS); assay type: in vivo, mice; settings: 150 mg/kg i.p., 30 min post-dose, mouse; for concentration at 30 min: ip, 150 mg/kg
Protocol: Each animal was humanely killed immediately after production of a convulsion by destruction of the brain from striking the cranium, followed by the confirmation of permanent cessation of the circulation from decapitation under The Humane Killing of Animals under Schedule 1 to the Animals (Scientific Procedures) Act 1986. Terminal blood and brain collection were performed following decapitation.
Blood was collected in Lithium-heparin tubes and centrifuged at 4° C. for 10 minutes at 1500×g. The resulting plasma was removed (>100 μL) and split into 2 aliquots of 0.5 mL Eppendorf tubes containing 10 μL of ascorbic acid (100 mg/mL) for stabilisation. Brains were removed, washed in saline and halved. Each half was placed into separate 2 mL screw cap cryovials, weighed and frozen on cardice.
Bioanalysis experiments were carried out to determine the quantitative measurement of Compound I in plasma and brain.
Six mice were dosed with Compound I at 150 mg/kg via intraperitoneal (i.p) injection. Sample analysis was performed 30 min post-dose using a sample volume of 40 μL. Following addition of internal standard (in acetonitrile) and Isopropanol samples were protein precipitated by addition of acetonitrile. Samples were centrifuged and supernatant transferred to a clean 96-well plate (with addition of Tween to minimise non-specific binding to plate materials), evaporated to dryness then reconstituted in suitable solvent. The extracts quantified by ultraperformance liquid chromatography-tandem mass spectromtry (UPLC-MS/MS).

[3] = test system: mouse model of generalised seizure (tonic hind limb extensor convulsions); test: mini-MEST (maximal electroshock seizure threshold) test in the mouse; settings: 30 min post dose
Protocol: The maximal electroshock seizure threshold (MEST) test is widely utilized preclinically to evaluate pro- or anti-convulsant properties of test compounds (Loscher et al., 1991).
In the MEST test the ability of a drug to alter the seizure threshold current required to induce hind limb tonic extensor convulsions is measured according to an “up and down” method of shock titration (Kimball et al., 1957). An increase in seizure threshold is indicative of anti-convulsant effect.
The ability of a test compound to alter the stimulus intensity, expressed as current (mA), required to induce the presence of tonic hind limb extensor convulsions, is assessed in the MEST.
Naïve mice were acclimatized to the procedure room in their home cages for up to 7 days, with food and water available ad libitum.
All animals were weighed at the beginning of the study and randomly assigned to treatment groups based on a mean distribution of body weight across groups.
The first animal within a treatment group was given a shock at the expected or estimated CC50 current. For subsequent animals, the current was lowered or raised depending on the convulsions outcome from the preceding animal in log scale intervals.
Data generated from each treatment group were used to calculate the CC50±SEM values for the treatment group.
The test compound, described herein as Compound I, are as shown as Formula I. Test compound was administered at 150 mg/kg (i.p.) in a 1:2:17 ethanol:solutol:0.9% saline formulation.
The data for each treatment group were recorded as the number of +'s and 0's at each current level employed and this information is then used to calculate the CC50 value (current required for 50% of the animals to show seizure behaviour)±standard error.
Test compound effects were also calculated as percentage change in CC50 from the vehicle control group.
Significant difference between drug-treated animals and controls were assessed according to Litchfield and Wilcoxon (1949).

In the case of C=C(C)[C@@H]1CCC(C)=C[C@H]1c1c(O)cc(CCCC)cc1O [CBD-C4, Cannabidiol-C4], the anti-convulsant activity [1] is listed as “Therapeutic efficacy was shown”.
With C=C(C)[C@@H]1C[C@H](O)C(C)=C[C@H]1c1c(O)cc(CCCC)cc1O [Compound I, (1′R,2′R,4′S)-4-butyl-5′-methyl-2′-(prop-1-en-2-yl)-1′,2′,3′,4′-tetrahydro-[1,1′-biphenyl]-2,4′,6-triol] the “Conc. in brain (individual animals; head: Plasma Conc.)” value ([2]; brain) was 17.696 µM and 200.472 µM and 183.889 µM and 173.842 µM and 212.516 µM and 228.344 µM, the concentration at 30 min ([2]; brain, brain, n=6, read-out: Mean conc. in brain (head: Mean Plasma Conc.)) was 169 µM and the concentration at 30 min ([2]; plasma, plasma, n=6, read-out: Mean Plasma Conc.) was 255 µM. For the same molecule, the “Plasma Conc. (individual animals)” value ([2]; plasma) was 379.642 µM and 242.369 µM and 47.322 µM and 295.516 µM and 268.44 µM and 299.404 µM, the “tonic hind limb convulsions in treatment group” value ([3]; 150 mg/kg i.p., 6 animals) was “did not have any convulsions” and the “CC50 +/- SEM (current required for 50% of the animals to show seizure behaviour)” value ([3]; 150 mg/kg i.p., N=6) was >131 mA.
With CN1C(=O)CN=C(c2ccccc2)c2cc(Cl)ccc21 [Diazepam, diazepam, reference compound] the “% change from vehicle (CC50)” value ([3]; 2.5 mg/kg i.p.) was 291%.
